Test results taken from patent US20240067613A1, “NOVEL QUINAZOLINE DERIVATIVES AS SOS1 INHIBITORS AND USE THEREOF” (HANMI PHARMACEUTICAL CO., LTD., priority 2020, published 2024).

Molecular target: T1, SOS1 binding to KRAS G12C (Homo sapiens, UniProt Q07889)
T1 construct: consisting of amino acid residues 564 to 1049 which are the catalytic domain; purchased Reaction Biology Corporation MSC-11-502 (SOS1-Strep); MSC-11-538 (KRAS G12C)
T1 sequence (Q07889 564-1049): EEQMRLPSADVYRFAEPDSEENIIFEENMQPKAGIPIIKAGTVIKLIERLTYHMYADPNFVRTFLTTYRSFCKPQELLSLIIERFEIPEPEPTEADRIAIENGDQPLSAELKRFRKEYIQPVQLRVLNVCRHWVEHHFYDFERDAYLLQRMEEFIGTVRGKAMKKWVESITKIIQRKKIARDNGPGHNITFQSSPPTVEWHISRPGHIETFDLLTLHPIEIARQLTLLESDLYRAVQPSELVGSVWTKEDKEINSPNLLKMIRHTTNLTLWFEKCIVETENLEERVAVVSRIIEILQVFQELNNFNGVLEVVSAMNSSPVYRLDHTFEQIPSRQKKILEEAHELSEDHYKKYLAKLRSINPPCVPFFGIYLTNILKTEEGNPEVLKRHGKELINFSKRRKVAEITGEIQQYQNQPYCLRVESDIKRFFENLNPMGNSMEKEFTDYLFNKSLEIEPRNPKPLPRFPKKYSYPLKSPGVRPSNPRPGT
Assay: SOS1 GTP substitution inhibition test (HTRF/TR-FRET, KRAS G12C-SOS1 binding inhibitory ability)
Type: biochemical
Settings: HTRF, GST-KRAS G12C (2-169), SOS1-Strep (564-1049), 1.6, 8, 40, 200, 1,000 nM
Experimental: In order to determine whether the substitution function of SOS1 binding to KRAS G12C is inhibited by the above-described example compounds, a homogeneous time-resolved fluorescence (HTRF) test was performed using G12C(#MSC-11-538) and SOS1-Strep(#MSC-11-502) purchased from Reaction Biology Corporation (MA, USA). The activity of SOS1 enzyme was determined by measuring the amount of GTP bound to KRAS G12C proteins, using the principle of time-resolved fluorescence energy transfer (TR-FRET). Based on the principle that terbium bound to the GST-binding antibody of the GST-KRAS G12C protein acts as a donor of fluorescence resonance energy transfer (FRET), and the GTP bound to the KRAS G12C protein is labeled with the fluorescent agent DY-647P1 and acts as a receiver, when the more GTP is bound to the KRAS G12C protein by the substitution reaction of SOS1 according to this test, the higher HTRF or FRET signal is measured. To summarize, glutathione S-transferase (GST)-tagged KRAS G12C proteins (consisting of amino acid residues 2 to 169) required for the reaction, streptavidin-tagged SOS1 proteins (consisting of amino acid residues 564 to 1049 which are the catalytic domain), anti-GST antibody (#61[…]) purchased from CISBIO corporation, nucleic acid (#NU-820-647P1) purchased from Jena Bioscience GmbH were mixed in a buffer solution formed from 10 mM HEPES pH7.4, 150 mM NaCl, 5 mM MgCl2, and 1 mM dithiothreitol (DTT), and the mixture was added to a 384-well plate and reacted at room temperature. Next, FRET signals were measured with a Perkin Elmer Envision microplate reader. In this case, an excitation signal (excitation) was measured at 320 nm, and an emission signal (emission) was measured at 615/665 nm. The fluorescence measurement value when the SOS1 protein was not included was calculated as a background signal value, and the background signal value was subtracted from all of the measured HTRF values. The fluorescence measurement value when the synthesized compound was not included was measured as a control value, and this value was selected as a reference point of 100%. For each of the example compounds, fluorescence was measured at concentrations of 1.6, 8, 40, 200, and 1,000 nM (5 points, 5-fold), and the 50% activity inhibition value (IC50) of each of the compounds was calculated using GraphPad Prism. When the IC50 value was 50 nM or less, the inhibitory ability was denoted as +++. When the IC50 value was more than 50 nM and 100 nM or less, the inhibitory ability was denoted as ++. When the IC50 value was more than 100 nM, the inhibitory ability was denoted as +.

Compound | IC50 [nM]
COc1cc2c(N[C@H](C)c3cccc(N)c3OC)nc(C)nc2cc1C(=O)N1CCOCC1 [Example 19, (R)-(4-((1-(3-amino-2-methoxyphenyl)ethyl)amino)-6-methoxy-2-methylquinazolin-7-yl)(morpholino)methanone] | > 100
CNc1cc2c(N[C@H](C)c3cc(N)cc(C(F)(F)F)c3)nc(C)nc2cc1CN1CCOCC1 [Example 49, (R)-N^4-(1-(3-amino-5-(trifluoromethyl)phenyl)ethyl)-N^6,2-dimethyl-7-(morpholinomethyl)quinazoline-4,6-diamine] | 50 to 100
COc1cc2c(N[C@H](C)c3cccc4c3CCC4)nc(C)nc2cc1C(=O)N1CCOCC1 [Example 23, (R)-(4-((1-(2,3-dihydro-1H-inden-4-yl)ethyl)amino)-6-methoxy-2-methylquinazolin-7-yl)(morpholino)methanone] | 50 to 100
COc1cc2c(N[C@H](C)c3cc(N)cc(C(F)(F)F)c3)nc(CF)nc2cc1C(=O)N1CCOCC1 [Example 33, (R)-(4-((1-(3-amino-5-(trifluoromethyl)phenyl)ethyl)amino)-2-(fluoromethyl)-6-methoxyquinazolin-7-yl)(morpholino)methanone] | > 100
COc1cc2c(N[C@H](C)c3cc(N)cc(C#N)c3)nc(C)nc2cc1C(=O)N1CCOCC1 [Example 22, (R)-3-amino-5-(1-((6-methoxy-2-methyl-7-(morpholine-4 carbonyl)quinazolin-4-yl)amino)ethyl)benzonitrile] | > 100

More lines, now with the values ahead:

IC50 [nM] | Compound
50 to 100 | CCNc1cc2c(N[C@H](C)c3cc(N)cc(C(F)F)c3F)nc(C)nc2cc1C(=O)N1CCOCC1 [Example 52, (R)-(4-((1-(5-amino-3-(difluoromethyl)-2-fluorophenyl)ethyl)amino)-6-(ethylamino)-2-methylquinazoline-7-yl)(morpholino)methanone]
≤ 50 | CNc1cc2c(N[C@H](C)c3cc(N)cc(C(F)F)c3)nc(C)nc2cc1C(=O)N1CCOCC1 [Example 51, (R)-(4-((1-(3-amino-5-(difluoromethyl)phenyl)ethyl)amino)-2-methyl-6-(methylamino)quinazoline-7-yl)(morpholino)methanone]
50 to 100 | Cc1nc(N[C@H](C)c2cc(N)cc(C(F)(F)F)c2)c2cc(NC3CCCC3)c(C(=O)N3CCOCC3)cc2n1 [Example 45, (R)-(4-((1-(3-amino-5-(trifluoromethyl)phenyl)ethyl)amino)-6-(cyclopentylamino)-2-methylquinazoline-7-yl)(morpholino)methanone]
≤ 50 | COc1cc2c(N[C@H](C)c3cc(N)cc(C(F)(F)F)c3)nc(C)nc2cc1C(=O)N1CCOCC1 [Example 1, (R)-(4-((1-(3-amino-5-(trifluoromethyl)phenyl)ethyl)amino)-6-methoxy-2-methylquinazoline-7-yl)(morpholino)methanone]
50 to 100 | COCCNc1cc2c(N[C@H](C)c3cc(N)cc(C(F)(F)F)c3)nc(C)nc2cc1C(=O)N1CCOCC1 [Example 44, (R)-(4-((1-(3-amino-5-(trifluoromethyl)phenyl)ethyl)amino)-6-((2-methoxyethyl)amino)-2-methylquinazoline-7-yl)(morpholino)methanone]
50 to 100 | COc1cc2c(N[C@H](C)c3cc(N)cc(C(F)(F)F)c3C)nc(C)nc2cc1C(=O)N1CCOCC1 [Example 16, (R)-(4-((1-(5-amino-2-methyl-3-(trifluoromethyl)phenyl)ethyl)amino)-6-methoxy-2-methylquinazolin-7-yl)(morpholino)methanone]
≤ 50 | CNc1cc2c(N[C@H](C)c3cc(N)cc(C(F)F)c3F)nc(C)nc2cc1C(=O)N1CC2COCC2C1 (stereo partly drawn) [Example 63, (4-(((R)-1-(5-amino-3-(difluoromethyl)-2-fluorophenyl)ethyl)amino)-2-methyl-6-(methylamino)quinazoline-7-yl)(tetrahydro-1H-furo[3,4-c]pyrrol-5(3H)-yl)methanone]
